Patent publication US20240299294A1, “TARGETED DELIVERY OF EFFECTIVE THERAPEUTIC MEDICATIONS TO THE RESPIRATORY TRACT” (Amphastar Pharmaceuticals, Inc., priority 2020, published 2024)
Like-named read-outs stand apart in the source and are kept apart here.

Columns and labels:
in vivo [1] = experiment: in vivo; parameters: species or system mice; conditions: mouse
Method: The breathing tank 400 is a specially designed stainless steel breathing tank, which is used for mice to breathe in aerosolized formulations of the medications described earlier in the Examples. At the start of each treatment session, a specific number of sprays of a medication formulation were sprayed into the pre-cleaned tank. To ensure consistent concentration of test article, a stirring fan installed inside the tank was started at a speed of 400 rpm before the first spray of the test articles (such as, the medications). Thirty seconds after the last spray, eight mice were mounted to the inhalation chamber to breathe in aerosolized formulations of the medications from the breathing tank for a specified duration. Animals were then taken off the breathing tank (defined as the “0” time point post dosing).
The purpose of the study is to evaluate the lung delivery characteristics of single dose HCQ inhalation in a mouse model. […] Thirty seconds after the last spray (t=0 minute), eight mice were mounted to the inhalation chamber to breathe the medication aerosol from the breathing tank for 10 minutes.
Mice were euthanized and mice lung samples were collected and homogenated at eight time points of 10′, 30′, 45′, 1 h, 2 h, 3 h, 4 h and 6 h after treatment. Four mice were used at each time point and in total 32 mice were studied.

in vivo [2] = conditions: mouse
Method: For the single-dose study, 48 mice were treated with the highest dose level (16 sprays) of Formulation 11. Twelve time points were measured: baseline (within one hour before dosing), 5 min, 15 min, 30 min, 1 h, 2 h, 3 h, 4 h, 6 h, 9 h, 24 h and 48 h post dosing. Each animal was sampled twice at two different time points and four mice per gender were used at each time point.

mice = experiment: 5-day repeated-dose local and systemic toxicity study of HCQ inhalation (Example 12); assay type: in vivo
Method: A total of 200 mice were used, in which 40 mice (male:female=1:1) were assigned to each study arm.
Mice were dosed four sessions a day for 5 days, with 3 hours interval between two consecutive treatment sessions. Each session was a 6-minute nose-only inhalation treatment after spraying the designated articles (4, 8 or 16 sprays) into the 21.5 L breathing tank.
After the treatment, 24 mice (male:female=1:1) were sacrificed on Day 6 (or Day-1 post completion of treatment, PCT Day-1) for acute toxicity evaluation and 16 mice (male:female=1:1) were sacrificed on Day 19 (PCT Day-14) for recovery evaluation.
Standard local toxicity evaluation items included: (1) general safety including in-life daily observation and body weight measurement; (2) gross macroscopic observation and organ weight measurement; (3) clinical pathology including hematology and blood chemistry tests; and (4) microscopic histopathological examination.

SARS-CoV-2 virus = experiment: microbe, parasite or virus in culture; assay type: cell-based; conditions: Severe acute respiratory syndrome coronavirus 2, VeroE6/TMPRSS2
[3] = Cell viability (MTT) assay, CC50, Study APS002-1; assay type: cell-based; conditions: African green monkey, Vero E6-TMPRSS2 cells
Method: In the antiviral cell assay, Vero E6-TMPRSS2 cells were seeded into 96 well plates and grown to 80-90% confluency. Compounds were prepared using an 8-point, half-log (˜3-fold) dilution starting at 100 μM. Vehicle (Placebo) and positive control (Remdesivir) wells were included to control for any influence on cell viability. After one hour, compounds were removed and virus was added at a single concentration (100× Median Tissue Culture Infectious Dose (TCID50)), together with equivalent serial dilutions of test compound. Following infection/treatment, cells were incubated for a further hour. After infection, virus/treatment was removed and an overlay medium was added to the cells, together with equivalent serial dilutions of test compound. Cells were visually inspected daily for the appearance of any cytopathic effect (“CPE”). A cell viability (MTT) assay was performed once CPE was complete.

[4] = in vivo
in vivo [5] = conditions: mouse; remark: listed apart in the source
[6] = cited from earlier work
[7] = Dose range and dose response study of HCQ for lung delivery (Example 9); conditions: mouse, in vivo, 16 sprays
[8] = Estimation of HCQ concentration in alveolar lining fluid (ALF) (Example 11); conditions: mouse, in vivo, 10 sprays

Q: For `CCN(CCO)CCCC(C)Nc1ccnc2cc(Cl)ccc12` (stereo not drawn) [HCQ, Hydroxychloroquine], which “appearance of mice after the treatment” value (in vivo [1]) is on record?
A: Its value is “appeared healthy and normal”.

Q: What about the half-life (in vivo [1]; inhaled or intranasal) of the same molecule?
A: Its half-life is 4.6 h.

Q: What about the half-life (in vivo [2]; both) of the same molecule?
A: The half-life was at least 4 h.

Q: What about the Kp (in vivo [2]; both, in vivo, 16 sprays) of the same molecule?
A: Its Kp is at least 25.

Q: And the Kp at 0.083 h (in vivo [2]; female, in vivo, 16 sprays)?
A: The Kp at 0.083 h was 66.3.

Q: What about the Kp at 0.25 h (in vivo [2]; female, in vivo, 16 sprays) of the same molecule?
A: The Kp at 0.25 h was 50.6.

Q: What about the Kp at 0.5 h (in vivo [2]; female, in vivo, 16 sprays) of the same molecule?
A: The Kp at 0.5 h was 38.

Q: What about the Kp at 1 h (in vivo [2]; female, in vivo, 16 sprays) of the same molecule?
A: Its Kp at 1 h is 100.

Q: And the Kp at 3 h (in vivo [2]; female, in vivo, 16 sprays)?
A: Its Kp at 3 h is 193.

Q: And the Kp at 24 h (in vivo [2]; female, in vivo, 16 sprays)?
A: The Kp at 24 h was 26.9.

Q: And the concentration at 0.083 h (in vivo [2]; female, in vivo, 16 sprays)?
A: The concentration at 0.083 h was 133 ng/mL.

Q: What about the concentration at 0.25 h (in vivo [2]; female, in vivo, 16 sprays) of the same molecule?
A: The concentration at 0.25 h was 89.2 ng/mL.

Q: And the concentration at 0.5 h (in vivo [2]; female, in vivo, 16 sprays)?
A: Its concentration at 0.5 h is 93.6 ng/mL.

Q: What about the concentration at 1 h (in vivo [2]; female, in vivo, 16 sprays) of the same molecule?
A: Its concentration at 1 h is 40.2 ng/mL.

Q: What about the concentration at 3 h (in vivo [2]; female, in vivo, 16 sprays) of the same molecule?
A: Its concentration at 3 h is 16.8 ng/mL.

Q: And the concentration at 24 h (in vivo [2]; female, in vivo, 16 sprays)?
A: The concentration at 24 h was 12.6 ng/mL.

Q: And the Kp at 0.083 h (in vivo [2]; male, in vivo, 16 sprays)?
A: Its Kp at 0.083 h is 58.4.

Q: And the Kp at 0.25 h (in vivo [2]; male, in vivo, 16 sprays)?
A: Its Kp at 0.25 h is 51.5.

Q: What about the Kp at 0.5 h (in vivo [2]; male, in vivo, 16 sprays) of the same molecule?
A: The Kp at 0.5 h was 85.2.

Q: What about the Kp at 1 h (in vivo [2]; male, in vivo, 16 sprays) of the same molecule?
A: The Kp at 1 h was 90.9.

Q: What about the Kp at 3 h (in vivo [2]; male, in vivo, 16 sprays) of the same molecule?
A: Its Kp at 3 h is 250.

Q: What about the Kp at 24 h (in vivo [2]; male, in vivo, 16 sprays) of the same molecule?
A: The Kp at 24 h was 56.5.

Q: And the concentration at 0.083 h (in vivo [2]; male, in vivo, 16 sprays)?
A: Its concentration at 0.083 h is 163 ng/mL.

Q: And the concentration at 0.25 h (in vivo [2]; male, in vivo, 16 sprays)?
A: Its concentration at 0.25 h is 92 ng/mL.

Q: What about the concentration at 0.5 h (in vivo [2]; male, in vivo, 16 sprays) of the same molecule?
A: The concentration at 0.5 h was 55 ng/mL.

Q: And the concentration at 1 h (in vivo [2]; male, in vivo, 16 sprays)?
A: Its concentration at 1 h is 40.2 ng/mL.

Q: And the concentration at 3 h (in vivo [2]; male, in vivo, 16 sprays)?
A: Its concentration at 3 h is 13.2 ng/mL.

Q: And the concentration at 24 h (in vivo [2]; male, in vivo, 16 sprays)?
A: Its concentration at 24 h is 4.9 ng/mL.

Q: And the “local toxicity, nasal turbinates and larynx” value (mice; Formulation 11, PCT-Day 1)?
A: The value was “low incidence of minor changes”.

Q: What about the “histopathological finding in the thymus” value (mice; mouse, in vivo) of the same molecule?
A: Its value is “minimal to mild tingible body macrophages”.

Q: And the “local toxicity, histopathological examination of six organs” value (mice; mouse, in vivo)?
A: The value was “No dose related abnormalities”.

Q: And the EC50 (SARS-CoV-2 virus; Vero E6-TMPRSS2 cells, virus 100× TCID50, read-out: EC50)?
A: Its EC50 is 11.3 µM.

Q: What about the CC50 [3] of the same molecule?
A: The CC50 was over 100 µM.

Q: And the “time the delivered medication can be detected in the mouse lungs” value [4]?
A: Its value is “no less than 24 h”.

Q: What about the half-life (in vivo [5]; both) of the same molecule?
A: Its half-life is 6 to 8 h.

Q: And the half-life (in vivo [5])?
A: Its half-life is 4.6 to 7.8 h.

Q: And the half-life ([6]; HCQ oral tablet delivery)?
A: Its half-life is 123.5 days.

Q: What about the “share of oral tablet dose distributed to the plasma and ultimately reaching the lungs and alveoli” value ([6]; in vivo, po) of the same molecule?
A: The value was “about 0.07%”.

Q: And the concentration at 0.083 h ([7]; female)?
A: The concentration at 0.083 h was 8820 ng/g.

Q: What about the concentration at 0.25 h ([7]; female) of the same molecule?
A: The concentration at 0.25 h was 4510 ng/g.

Q: And the concentration at 0.5 h ([7]; female)?
A: The concentration at 0.5 h was 3560 ng/g.

Q: And the concentration at 1 h ([7]; female)?
A: Its concentration at 1 h is 4040 ng/g.

Q: What about the concentration at 3 h ([7]; female) of the same molecule?
A: The concentration at 3 h was 3250 ng/g.

Q: And the concentration at 24 h ([7]; female)?
A: Its concentration at 24 h is 339 ng/g.

Q: And the concentration at 0.083 h ([7]; male)?
A: Its concentration at 0.083 h is 9510 ng/g.

Q: And the concentration at 0.25 h ([7]; male)?
A: The concentration at 0.25 h was 4740 ng/g.

Q: What about the concentration at 0.5 h ([7]; male) of the same molecule?
A: Its concentration at 0.5 h is 4680 ng/g.

Q: What about the concentration at 1 h ([7]; male) of the same molecule?
A: The concentration at 1 h was 3660 ng/g.

Q: What about the concentration at 3 h ([7]; male) of the same molecule?
A: The concentration at 3 h was 3300 ng/g.

Q: And the concentration at 24 h ([7]; male)?
A: The concentration at 24 h was 277 ng/g.

Q: And the concentration at 10 min [8]?
A: Its concentration at 10 min is 476 µM.

Q: What about the concentration at 6 h [8] of the same molecule?
A: Its concentration at 6 h is 188 µM.

Q: Which EC50 (SARS-CoV-2 virus) does the source give for `CCC(CC)COC(=O)[C@H](C)N[P@](=O)(OC[C@H]1O[C@@](C#N)(c2ccc3c(N)ncnn23)[C@H](O)[C@@H]1O)Oc1ccccc1` [Remdesivir] here?
A: The EC50 was 2.35 µM.

Q: What about the CC50 [3] of the same molecule?
A: Its CC50 is over 20 µM.
